Earlier results as cited in patent US6793912B2, “Treatment of cancers by inhalation of stable platinum-containing formulations” (Transave Inc., priority 2001, dated 2004).

Conditions: administered by inhalation vs intravenously

N.N.[Cl][Pt][Cl] [Cisplatin, cis-diamminedichloroplatinum(II)]
dose required to elicit a response in animal models, more effective in the lung than intravenously: 10-100 fold
